{
  "source": "patent US8821921B2",
  "about": "“Vitamin D3 for the transdermal treatment of pain and inflammation” (Anzamed International Limited, priority 2009, dated 2014)",
  "origin": "cited, not measured here",
  "system": "diabetic neuropathic pain",
  "conditions": "daily oral doses, patients with diabetic neuropathy",
  "data": [
    {"smiles": "C=C1CC[C@H](O)C/C1=C/C=C1\\CCC[C@]2(C)[C@@H]([C@H](C)CCCC(C)C)CC[C@@H]12", "note": "[vitamin D3, cholecalciferol]", "values": [
      {"measurement": "diabetic neuropathic pain", "result": "significant reduction"}
    ]}
  ]
}
